From article PMC5643545, “A novel library of -arylketones as potential inhibitors of α-glucosidase: Their design, synthesis, in vitro and in vivo studies” (Scientific Reports, 2017)

Assays:
[1] = target: T1, α-glucosidase (yeast origin) (Saccharomyces cerevisiae, UniProt P53341); test: α-glucosidase (yeast) inhibition assay, PNPG substrate, 96-well; type: biochemical; conditions: two independent assays, performed in duplicate, 37 °C, 10 min, read-out: IC50s α-glucosidase (yeast)
T1 construct: purchased Sigma Aldrich
T1 sequence (P53341 whole entry): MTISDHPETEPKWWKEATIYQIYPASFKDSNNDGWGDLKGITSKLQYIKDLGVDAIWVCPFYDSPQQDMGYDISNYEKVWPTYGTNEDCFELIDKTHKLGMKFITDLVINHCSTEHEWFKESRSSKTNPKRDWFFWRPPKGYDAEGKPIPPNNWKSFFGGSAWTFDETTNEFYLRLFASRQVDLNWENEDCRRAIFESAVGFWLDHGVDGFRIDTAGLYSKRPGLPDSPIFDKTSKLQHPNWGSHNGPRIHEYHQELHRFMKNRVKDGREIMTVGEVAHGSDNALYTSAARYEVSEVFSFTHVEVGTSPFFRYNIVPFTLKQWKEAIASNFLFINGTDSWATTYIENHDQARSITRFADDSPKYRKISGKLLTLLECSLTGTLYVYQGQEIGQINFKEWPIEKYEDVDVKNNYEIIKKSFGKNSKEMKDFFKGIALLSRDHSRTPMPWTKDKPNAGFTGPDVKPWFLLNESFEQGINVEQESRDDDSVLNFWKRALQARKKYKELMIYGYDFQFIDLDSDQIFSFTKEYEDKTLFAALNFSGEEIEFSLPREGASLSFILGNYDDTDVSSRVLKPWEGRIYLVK
Procedure: The test compounds were dissolved and diluted in dimethyl sulfoxide (DMSO). They were placed in the plate along with the substrate and 10 mM of potassium sulphate buffer. They were then reacted with appropriate enzymes. After incubating the plates for ten minutes, the absorbance of the wells were measured at 430 nM. The increase in abundance (ΔA) was compared against the control i.e. buffer.
The inhibitory effect of the synthesized compounds on α-glucosidase (yeast origin), α-fucosidase (bovine kidney origin) and α-mannosidase (jack bean origin) inhibitory activity was determined in 96-well plates employing the substrate PNPG and 4-nitrophenyl α-D-glucopyranoside according to the procedure previously reported by Ferreres et al.[42]. Prior to use, all test compounds were solubilised in solvent, dimethylsulfoxide (DMSO), and then further diluted in DMSO to acquire the desired final maximum test concentration. […] The absorbance was measured spectrophotometrically at 430 nm (Spectra Max M5e micro plate reader). The increase in absorbance (ΔA) was compared with that of the control (buffer instead of test compound) to compute the inhibitory concentrations (IC50) which was determined from two independent assays, performed in duplicate.

[2] = target: T2, α-fucosidase (bovine kidney origin) (Bos taurus, UniProt Q2KIM0); test: α-fucosidase inhibition assay, 96-well; type: biochemical; conditions: two independent assays, performed in duplicate; read-out: IC50s α-fucosidase (bovine kidney)
T2 construct: purchased Sigma Aldrich; host or cells: bovine kidney
T2 sequence (Q2KIM0 23-468): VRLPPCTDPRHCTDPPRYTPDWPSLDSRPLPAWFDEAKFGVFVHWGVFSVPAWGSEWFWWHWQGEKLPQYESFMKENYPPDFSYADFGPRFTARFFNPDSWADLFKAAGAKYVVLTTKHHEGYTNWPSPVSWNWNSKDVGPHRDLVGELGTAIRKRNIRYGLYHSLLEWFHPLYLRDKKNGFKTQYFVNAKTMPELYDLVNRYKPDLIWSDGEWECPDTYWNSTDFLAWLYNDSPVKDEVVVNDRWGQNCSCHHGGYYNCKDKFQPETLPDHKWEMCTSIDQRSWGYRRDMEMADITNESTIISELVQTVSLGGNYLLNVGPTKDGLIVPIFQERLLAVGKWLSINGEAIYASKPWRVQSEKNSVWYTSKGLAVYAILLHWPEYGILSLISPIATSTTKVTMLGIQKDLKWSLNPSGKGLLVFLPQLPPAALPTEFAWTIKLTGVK
Procedure: (§1) To assess the inhibitory effect and also the extent of selectivity our library was against α-glucosidase (yeast origin), α-fucosidase (bovine kidney origin) and α-mannosidase (jack bean origin) (in 96-well plates employing 4-nitrophenyl-α-D-glucopyranoside (PNPG) as substrate) (Table 1). The test compounds were dissolved and diluted in dimethyl sulfoxide (DMSO). They were placed in the plate along with the substrate and 10 mM of potassium […] buffer. They were then reacted with appropriate enzymes. After incubating the plates for ten minutes, the absorbance of the wells were measured at […]. The increase in […] (ΔA) was compared against the control i.e. buffer.
(§2) The inhibitory effect of the synthesized compounds on α-glucosidase (yeast origin), α-fucosidase (bovine kidney origin) and α-mannosidase (jack bean origin) inhibitory activity was determined in 96-well plates employing the substrate PNPG and 4-nitrophenyl α-D-glucopyranoside according to the procedure previously reported by Ferreres et al.[42]. […] The absorbance was measured spectrophotometrically at 430 nm (Spectra Max M5e micro plate reader). The increase in absorbance (ΔA) was compared with that of the control (buffer instead of test compound) to compute the inhibitory concentrations (IC50) which was determined from two independent assays, performed in duplicate. […]

[3] = target: T3, α-mannosidase (jack bean origin) (Canavalia ensiformis, UniProt C0HJB3); test: α-mannosidase inhibition assay, 96-well; type: biochemical; conditions: two independent assays, performed in duplicate; read-out: IC50s α-mannosidase (jack bean)
T3 construct: purchased Sigma Aldrich; host or cells: jack bean
T3 sequence (C0HJB3 1-981): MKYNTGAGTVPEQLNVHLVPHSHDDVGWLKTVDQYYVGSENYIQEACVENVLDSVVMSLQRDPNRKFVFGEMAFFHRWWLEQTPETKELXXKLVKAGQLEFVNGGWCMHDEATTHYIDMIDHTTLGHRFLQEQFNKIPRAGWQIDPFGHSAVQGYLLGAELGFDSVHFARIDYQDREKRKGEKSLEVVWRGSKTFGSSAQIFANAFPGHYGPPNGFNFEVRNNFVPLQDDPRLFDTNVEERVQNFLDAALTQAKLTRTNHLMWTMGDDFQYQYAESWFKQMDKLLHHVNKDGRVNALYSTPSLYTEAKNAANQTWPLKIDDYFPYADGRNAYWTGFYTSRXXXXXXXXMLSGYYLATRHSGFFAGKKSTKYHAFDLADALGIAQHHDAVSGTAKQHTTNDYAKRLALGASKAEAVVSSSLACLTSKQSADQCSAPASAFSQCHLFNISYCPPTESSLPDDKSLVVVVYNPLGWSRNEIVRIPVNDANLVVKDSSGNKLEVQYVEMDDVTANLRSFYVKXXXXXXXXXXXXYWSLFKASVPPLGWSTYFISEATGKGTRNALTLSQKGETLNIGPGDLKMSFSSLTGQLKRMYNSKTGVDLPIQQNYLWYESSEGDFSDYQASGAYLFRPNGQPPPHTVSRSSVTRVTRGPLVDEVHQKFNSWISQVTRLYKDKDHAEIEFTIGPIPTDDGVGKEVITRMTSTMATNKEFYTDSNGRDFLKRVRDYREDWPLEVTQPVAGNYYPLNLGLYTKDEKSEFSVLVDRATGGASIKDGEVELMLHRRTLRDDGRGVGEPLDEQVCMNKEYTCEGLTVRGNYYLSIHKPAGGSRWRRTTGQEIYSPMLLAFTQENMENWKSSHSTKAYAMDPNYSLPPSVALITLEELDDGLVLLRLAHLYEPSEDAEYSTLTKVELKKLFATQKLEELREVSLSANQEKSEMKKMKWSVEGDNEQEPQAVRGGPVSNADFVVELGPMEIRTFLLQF
Procedure: as §1, §2

[4] = set-up: method as in doi:10.1016/S0065-7743(08)60834-9; conditions: cited from earlier work
[5] = system: NA-STZ-diabetic mice; set-up: method as in PMID 20879744; conditions: 10, 31.2 and 56.2 mg/Kg; cited from earlier work

O=C(Cc1ccccc1Br)c1ccccc1C(=O)NCCc1ccccc1 [3o]
IC50 [1]: 6.93 µM | IC50 [2]: > 50 µM | IC50 [3]: > 50 µM

CS(=O)(=O)c1ccc(-n2nc(C(F)(F)F)cc2-c2ccc(F)cc2)cc1 [SC-58125]
half-life [4]: ~ 200 h

CCCC=C1OC(=O)c2ccccc21 [compound 2]
blood glucose level [5]: lowered blood glucose level
